Measurements taken from patent EP0261693A1, “Treated lipid regulator” (WARNER-LAMBERT COMPANY, priority 1986, dated 1988).
≈ marks a conversion by molar mass, not a printed value. Where two headings read alike, the source gives them in different places.

Test: Concentration (solubility) of gemfibrozil in buffer, from absorbance at 280 nm
Type: physicochemical
Conditions: aqueous buffer, excess gemfibrozil agitated overnight at room temperature, filtered, read-out: concentration of gemfibrozil in each buffer
Protocol: Gemfibrozil solutions were prepared in 0.05 M acetate buffer, pH 4.5, and 0.05 M phosphate buffer, pH 6.0 and 7.5 as follows: • Gemfibrozil solutions were prepared by adding an excess of gemfibrozil to the desired volume of buffer and agitating overnight on a shaker at room temperature. The resulting suspension was vacuum filtered. Gemfibrozil concentration was determined from absorbance at 280 nm, using [formula]
Ultraviolet absorbance measurements were obtained on a Beckman DU-7 spectrophotometer.
The concentration of gemfibrozil in each buffer, determined from absorbance at 280 nm was: pH 4.5, 0.014 mg/ml; pH 6.0, 0.150 mg/ml; pH 7.5, 1.711 mg/ml. Cholestyramine (10 mg) was added to 20 ml of each gemfibrozil solution and the mixtures were agitated for 2 hours. The mixtures were filtered and the concentration of unboud gemfibrozil was determined.

A solubility thermodynamic (0.05 M acetate buffer, pH 4.5) of 14 µg/mL (≈ 55.9 µM), a solubility thermodynamic (0.05 M phosphate buffer, pH 6.0) of 150 µg/mL (≈ 599 µM) and a solubility thermodynamic (0.05 M phosphate buffer, pH 7.5) of 1710 µg/mL (≈ 6830 µM) were found for `Cc1ccc(C)c(OCCCC(C)(C)C(=O)O)c1` [gemfibrozil] in this work.
